Assay results reported in patent US20260240820A1, “METHOD FOR CONTROLLING MEMBRANE POTENTIAL-DEPENDENT ION CHANNEL THROUGH TYPE I TASTE RECEPTORS (T1RS)” (ION CHAT RESEARCH CORPORATE, priority 2022, published 2026).
Entries after “also recorded” stand apart in the source; their conditions may differ. Where two headings read alike, the source gives them in different places.

What was measured:
[1] = test system: VGSC of SH-SY5Y cells (Nav1.7, Nav1.2, Nav1.3); experiment: Patch-clamp recording of VGSC current in differentiated SH-SY5Y cells; format: cell-based, human; settings: 5 mM
Kv1.2 = experiment: Patch-clamp recording of Kv1.2 potassium current in HEK cells expressing Kv1.2; format: cell-based, human
Experimental: The effects of Aβ peptides or umami substances on sustained potassium currents (VGKC) in cardiac myocytes can be studied using HEK cells expressing VGKC (such as Kv1.2, Kv3.2, Kv3.3) as well as SH-SY5Y cells expressing endogenous T1R GPCRs. For instance, as shown in the implementation example in (FIG. 36B), Aβ peptides were applied to VGKC-expressing human cultured cells, and VGKC currents were recorded using ramp-like or rectangular voltage waveforms via the patch-clamp technique. This allowed measurement of the changes (inhibition) in VGKC currents caused by Aβ peptides. Similar inhibition studies on VGKC can be conducted using umami substance L-glutamate sodium (MSG) (FIG. 36A).
As shown in (FIG. 37), Aβ1-42 peptide, unlike Aβ25-35 targeting T1R3, interacts with T1R1 and inhibits VGSC currents (FIGS. 37D, E).

[2] = test system: voltage-dependent potassium channel current of SH-SY5Y cells; experiment: Voltage clamp recording of outward potassium current in SH-SY5Y cells; format: cell-based, human; settings: 5 mM
Text: The inward current represents the transient peak observed immediately after stimulation, while the outward current measures the average value during the last 50 ms of rectangular pulse stimulation.

Nav1.5 = experiment: Patch-clamp (voltage clamp) recording of VGSC current in HEK cells stably expressing Nav1.5
VGSC = experiment: Patch-clamp recording of VGSC current, cell type not specified or several cell types (summary statements); format: cell-based, human
HEK Nav1.5 cells = experiment: GFP-Tubulin / GFP-Actin cytoskeleton observation in HEK Nav1.5 cells; format: cell-based, human; settings: MSG 5 mM
[3] = test system: Nav1.5 in T1R1-silenced HEK cells; experiment: VGSC current in HEK Nav1.5 cells with silenced T1R1; format: cell-based, human; settings: 5 mM for MSG2.5

N[C@@H](CCC(=O)O)C(=O)[O-].[Na+] [MSG, monosodium glutamate]
Inactivation of VGSC current [1]: delayed; also recorded: The inactivation speed of VGSC slows in 2 out of 3 SH-SY5Y cells | Effect on voltage gated K+ channel (Kv1.2) current (Kv1.2): Inhibition of Voltage gated | Effect on outward potassium current [2]: reduces the voltage-dependent potassium channel current; also recorded: decrease in outward currents | Inactivation process of transient VGSC current (Nav1.5; 5 mM): significantly delayed; also recorded: This delay in inactivation speed more pronounced in Nav1.5 cells | VGSC current suppressed by TBB (Nav1.5; 10 mM, after CK2 inhibitor TBB): partially recovered from TBB suppression | S-S curve shifted by TBB (Nav1.5; after TBB): partially reversed the leftward shift caused by TBB | Effect on VGSC inactivation (VGSC): delays the inactivation of VGSC | Effects on VGSCs (VGSC): Transient enhancement of VGSC; also recorded: Left shift of the I-V curve | VGSC I-V curve (VGSC; 5 mM): 5 mM MSG shifts the VGSC I-V curve to a more hyperpolarized direction. | Delay of VGSC inactivation (VGSC; 10 mM): This delaying effect even more evident at 10 mM MSG. | Inactivation curve of VGSC shifted by dichlorprop (VGSC; VGSC inhibited by more than 80% by dichlorprop): partially recovered | Suppression / leftward S-S shift of VGSC caused by artificial sweeteners (VGSC; cells pre-treated with aspartame or saccharin): partially reversed | Effects on VGSCs (VGSC; listed as L-Glu (MSG)): Delay in VGSC inactivation | Microtubule fibrous structure (GFP-Tubulin) (HEK Nav1.5 cells): disappearance of microtubule-like structures; also recorded: microtubule structure disappeared | Effect on VGSC currents in T1R1-silenced cells [3]: MSG had no effect on VGSC enhancement in T1R1 silenced cells.
